# Source: patent US8338336B2, “Synergistic herbicidal composition containing penoxsulam and oxyfluorfen” (Dow AgroSciences, LLC, priority 2010, dated 2012)
# Key:
# Format in all cases: in vivo
# [1] = system: ERICA = marestail (Conyza canadensis); assay: Field trial, autumn pre-emergence application, residual weed control (Table 2); conditions: Spain, rated 97 to 175 Days After Application; for % Control ERICA (2) Ob (observed visual weed control): Moron de la frontera; for % Control ERICA (1) Ob (observed visual weed control): Utrera
# Experimental: (§1) Evaluation of Pre-Emergence and Post-Emergence Herbicidal Activity of Mixtures in the Field
# (§2) Field trials were conducted in perennial tree and vine crops using standard herbicide small plot research methodology. Plots varied from 3×3 meter (m) to 3×10 m (width×length) with 3 to 4 replicates per treatment. The perennial tree and vine crops were grown using normal cultural practices for the respective areas for the trials, using normal planting, fertilization, watering, flooding and maintenance for pests to ensure good growth of the crop and the weeds.
# (§3) All treatments in the field trials were applied using a carbon dioxide (CO2) backpack sprayer calibrated to apply 187 liters per hectare (L/ha) spray volume. Commercially available products of penoxsulam and oxyfluorfen were mixed in water at appropriate formulated product rates to achieve the desired rates shown based on a unit area of application (hectare). Treatments were rated at different intervals from treatment to evaluation, from 7 to 175 days after application as compared to the untreated control plants. Due to the long term residual weed control needed to determine the synergistic effect, all single entity products and their tank mixes were mixed with glyphosate to ensure complete weed burndown to be able to measure residual weed control and not just burndown of weeds. Visual weed control was scored on a scale of 0 to 100 percent where 0 corresponds to no injury and 100 corresponds to complete kill.
# (§4) Colby's equation was used to determine the herbicidal effects expected from the mixtures (Colby, S. R. Calculation of the synergistic and antagonistic response of herbicide combinations. Weeds 1967, 15, 20-22).
# (§5) The following equation was used to calculate the expected activity of mixtures containing two active ingredients, A and B: Expected=A+B−(A×B/100)
# (§6) A=observed efficacy of active ingredient A at the same concentration as used in the mixture.
# (§7) B=observed efficacy of active ingredient B at the same concentration as used in the mixture.
# [2] = system: SHRAR = field madder (Sherardia arvensis); assay: as above; conditions: rated 97 to 175 Days After Application
# Experimental: as §1, §2, §3, §4, §5, §6, §7
# [3] = system: SOLNI = black nightshade (Solanum nigrum); assay: Field trial, autumn post-emergence application, post-emergence burndown activity (Table 4); conditions: Seville; for % Control SOLNI(2) Ob (observed visual weed control): Spain - 7 Days After Application; for % Control SOLNI(1) Ob (observed visual weed control): Spain - 20 Days After Application
# Experimental: as §1, §2, §3, §4, §5, §6, §7
# [4] = system: MALNE = mallow/malva (Malva neglecta); assay: Field trial, winter pre-emergence application, residual weed control (Table 1); conditions: rated 50 to 132 Days After Application
# Experimental: as §1, §2, §3, §4, §5, §6, §7
# [5] = system: ERIBO = fleabane (Conyza bonariensis); assay: as above; conditions: rated 50 to 132 Days After Application
# Experimental: as §1, §2, §3, §4, §5, §6, §7
# [6] = system: ERICA = marestail (Conyza canadensis); assay: as above; conditions: rated 50 to 132 Days After Application
# Experimental: as §1, §2, §3, §4, §5, §6, §7
# [7] = system: HEOEU = common heliotrope (Heliotropium europaeum); assay: Field trial, autumn post-emergence application, residual weed control (Table 3); conditions: rated 56 Days After Application
# Experimental: as §1, §2, §3, §4, §5, §6, §7
# [8] = system: POROL = purslane (Portulaca oleracea); assay: as above; conditions: rated 56 Days After Application
# Experimental: as §1, §2, §3, §4, §5, §6, §7
# [9] = system: CHEAL = common lambsquarter (Chenopodium album); assay: as above; conditions: rated 56 Days After Application
# Experimental: as §1, §2, §3, §4, §5, §6, §7
smiles,measurement,setting,value
CCOc1cc(Oc2ccc(C(F)(F)F)cc2Cl)ccc1[N+](=O)[O-] [Oxyfluorfen],% Control ERICA (2) Ob (observed visual weed control),[1]; oxyfluorfen 150 g/ha alone,79%
same,% Control ERICA (1) Ob (observed visual weed control),[1]; oxyfluorfen 150 g/ha alone,38%
same,% Control SHRAR Ob (observed visual weed control),[2]; oxyfluorfen 150 g/ha alone,63%
same,% Control SOLNI(2) Ob (observed visual weed control),[3]; oxyfluorfen 150 g/ha alone,45%
same,% Control SOLNI(1) Ob (observed visual weed control),[3]; oxyfluorfen 150 g/ha alone,35%
same,% Control MALNE Ob (observed visual weed control),[4]; oxyfluorfen 1680 g/ha alone,30%
same,% Control ERIBO Ob (observed visual weed control),[5]; oxyfluorfen 1120 g/ha alone,0%
same,% Control ERICA Ob (observed visual weed control),[6]; oxyfluorfen 1680 g/ha alone,5%
same,% Control HEOEU Ob (observed visual weed control),[7]; oxyfluorfen 150 g/ha alone,0%
same,% Control POROL Ob (observed visual weed control),[8]; oxyfluorfen 150 g/ha alone,0%
same,% Control CHEAL Ob (observed visual weed control),[9]; oxyfluorfen 150 g/ha alone,0%
"COc1cnc(OC)n2nc(NS(=O)(=O)c3c(OCC(F)F)cccc3C(F)(F)F)nc12 [Penoxsulam, 2-(2,2-difluoroethoxy)-N-(5,8-dimethoxy-[1,2,4]triazolo[1,5-c]pyrimidin-2-yl)-6-(trifluoromethyl)benzenesulfonamide]",% Control ERICA (2) Ob (observed visual weed control),[1]; penoxsulam 20 g/ha alone,6%
same,% Control ERICA (1) Ob (observed visual weed control),[1]; penoxsulam 20 g/ha alone,23%
same,% Control SHRAR Ob (observed visual weed control),[2]; penoxsulam 20 g/ha alone,0%
same,% Control SOLNI(2) Ob (observed visual weed control),[3]; penoxsulam 20 g/ha alone,10%
same,% Control SOLNI(1) Ob (observed visual weed control),[3]; penoxsulam 20 g/ha alone,10%
same,% Control MALNE Ob (observed visual weed control),[4]; penoxsulam 17.5 g/ha alone,37%
same,% Control MALNE Ob (observed visual weed control),[4]; penoxsulam 35 g/ha alone,50%
same,% Control ERIBO Ob (observed visual weed control),[5]; penoxsulam 8.8 g/ha alone,65%
same,% Control ERICA Ob (observed visual weed control),[6]; penoxsulam 8.8 g/ha alone,75%
same,% Control HEOEU Ob (observed visual weed control),[7]; penoxsulam 20 g/ha alone,0%
same,% Control POROL Ob (observed visual weed control),[8]; penoxsulam 20 g/ha alone,0%
same,% Control CHEAL Ob (observed visual weed control),[9]; penoxsulam 20 g/ha alone,0%
